Data set [1] has as its system rat. Particulars: Carcinogenicity, fischer, Oral, Feed, dose end: 105 week, group: systemic.
In data set [2] the test system is mouse. Particulars: Subchronic oral toxicity in rodents, b6c3f1, Feed, dose end: 14 week, group: systemic.
Data set [3] deals with mouse. Particulars: Carcinogenicity; b6c3f1; Oral; Feed; dose end: 105 week; group: systemic; systemic / in life observation / body weight / body weight + systemic / pathology microscopic / kidney / mineralization + systemic / ….
The subject of data set [4] is rat. Conditions: Reproduction/developmental toxicity screening test; sprague dawley; Oral; Water; dose end: 1 PND; group: parental; systemic / in life observation / water consumption / water consumption.
The subject of data set [5] is mouse. Conditions: Combined chronic toxicity/carcinogenicity, b6c3f1, Oral, Water, dose end: 105 week, group: systemic.
Data set [6] deals with rat. Particulars: Combined chronic toxicity/carcinogenicity, fischer, Oral, Water, dose end: 105 week, group: systemic.
Data set [7] deals with rat. Particulars: Subchronic oral toxicity in rodents, sprague dawley, Water, dose end: 13 week, group: systemic.
The test system of data set [8] is mouse. Conditions: Subchronic oral toxicity in rodents, b6c3f1, Water, dose end: 14 week, group: systemic.
For data set [9], the system named is rat. Particulars: Reproduction/developmental toxicity screening test, sprague dawley, Oral, Water, dose end: 1 generation, group: parental.
Data set [10] concerns rat. Particulars: Subchronic oral toxicity in rodents, fischer, Water, dose end: 14 week, group: systemic.
For data set [11], the system named is rat. Conditions: Subchronic oral toxicity in rodents, other, Gavage/Intubation, dose end: 90 day, group: systemic.
The subject of data set [12] is dog. Particulars: Subchronic oral toxicity in nonrodent, beagle, Capsule, dose end: 90 day, group: systemic.
For data set [13], the system named is rat. Conditions: Combined chronic toxicity/carcinogenicity, sprague dawley, Oral, Feed, dose end: 104 week, group: systemic.
The test system of data set [14] is mouse. Particulars: Carcinogenicity, cd1, Oral, Feed, dose end: 78 week, group: systemic.
Data set [15] has as its system rat. Conditions: Prenatal developmental toxicity study, other, Oral, Gavage/Intubation, dose end: 15 GD.
In data set [16] the test system is dog. Conditions: Subchronic oral toxicity in nonrodent, beagle, Capsule, dose end: 90 day, group: systemic. The source holds these as a separate data set.
In data set [17] the test system is rat. Particulars: Multigenerational reproductive toxicity study, sprague dawley, Oral, Feed, dose end: 2 generation.
The subject of data set [18] is dog. Conditions: Chronic toxicity, beagle, Oral, Capsule, dose end: 52 week, group: systemic.
Data set [19] deals with rat. Conditions: Subchronic oral toxicity in rodents, sprague dawley, Feed, dose end: 3 month, group: systemic.
Setting [20] is: systemic / pathology microscopic / kidney / hyperplasia + systemic / pathology microscopic / liver / hyperplasia + systemic / pathology ….
The mark [21] stands for this setting: systemic / organ weight / liver / absolute + systemic / organ weight / liver / relative to body weight + systemic / pathology microscopic / ….
[22] abbreviates: systemic / in life observation / water consumption / water consumption.
Setting [23] is: systemic / pathology microscopic / esophagus / hyperkeratosis + systemic / pathology microscopic / oral mucosa / [other] + systemic / ….
The mark [24] stands for this setting: systemic / pathology gross / thyroid gland / enlarged + systemic / pathology microscopic / thyroid gland / cellular alteration.
Setting [25] is: systemic / pathology gross / thyroid gland / enlarged + systemic / pathology microscopic / thyroid gland / cellular alteration + systemic / ….
Where [26] appears, read: systemic / in life observation / water consumption / water consumption + systemic / pathology gross / sperm measure / sperm motility.
Where [27] appears, read: systemic / pathology gross / sperm measure / sperm motility.
Setting [28] is: systemic / in life observation / food consumption / food consumption + systemic / in life observation / water consumption / water ….
Where [29] appears, read: systemic / clinical chemistry / alanine aminotransferase (alt/sgpt) / alanine aminotransferase (alt/sgpt) + systemic / clinical chemistry / ….
The mark [30] stands for this setting: systemic / organ weight / thymus / absolute + systemic / organ weight / thymus / relative to body weight + systemic / organ weight / thymus….
The mark [31] stands for this setting: systemic / clinical chemistry / alkaline phosphatase (alp/alk) / alkaline phosphatase (alp/alk) + systemic / clinical chemistry / calcium / ….
The mark [32] stands for this setting: systemic / in life observation / body weight / body weight gain + systemic / pathology microscopic / liver / hypertrophy + systemic / ….
The mark [33] stands for this setting: group: developmental, developmental / developmental malformation / bone / full supernumerary.
Where [34] appears, read: group: maternal, systemic / in life observation / body weight / body weight gain.
[35] abbreviates: systemic / clinical chemistry / alkaline phosphatase (alp/alk) / alkaline phosphatase (alp/alk) + systemic / organ weight / liver / absolute….
[36] abbreviates: group: offspring, systemic / in life observation / body weight / offspring (pup) weight.
[37] abbreviates: group: parental, systemic / in life observation / body weight / body weight + systemic / in life observation / food consumption / food consumption + systemic….
Setting [38] is: systemic / organ weight / liver / absolute + systemic / organ weight / liver / relative to body weight + systemic / clinical chemistry / ….
The mark [39] stands for this setting: systemic / clinical chemistry / cholesterol / cholesterol + systemic / clinical chemistry / lipids / phospholipids + systemic / hematology….
Where [40] appears, read: systemic / hematology / platelet / platelet + systemic / clinical chemistry / triglycerides / triglycerides + systemic / clinical chemistry….

In general, LOAEL refers to the lowest dose or exposure tested at which an adverse effect was seen. In general, NOAEL refers to the highest tested level that showed no adverse finding.

As for `O=C(c1ccccc1)c1ccccc1` [Benzophenone], the LOAEL amounted to 30 mg/kg/day in data set [1] (systemic / in life observation / body weight / body weight + systemic / pathology microscopic / kidney / hyperplasia + systemic / pathology …), 404 mg/kg/day in data set [2] (systemic / clinical chemistry / bile acids / bile acids + systemic / clinical chemistry / sorbitol dehydrogenase / sorbitol dehydrogenase + …) and 70 mg/kg/day in data set [3]. For the same compound, the LEL was found to be 15 mg/kg/day in [1] (setting [20]), 200 mg/kg/day in data set [2] (setting [21]) and 35 mg/kg/day in data set [3]. Moreover, the figures for the NEL in data set [1] (setting [20]), in data set [2] (setting [21]) and in data set [3] were below 15 mg/kg/day, below 200 mg/kg/day and below 35 mg/kg/day, respectively.
Regarding `N#CC(Br)Br` [Dibromoacetonitrile], the LEL was found to be 5.3 mg/kg/day in data set [4]; 3 mg/kg/day in [5] (setting [22]); 4 mg/kg/day in data set [6] (systemic / pathology microscopic / esophagus / hyperkeratosis + systemic / pathology microscopic / oral mucosa / [other] + systemic / in …); 0.005 mg/kg/day in data set [7] (setting [24]); 2 mg/kg/day in [8] (setting [27]); 3.3 mg/kg/day in data set [9] (setting [22]). Besides, the LEL came out at 3 mg/kg/day in data set [10] (setting [27]) and 23 mg/kg/day in data set [11] (systemic / clinical chemistry / albumin / albumin). Further, the LOAEL in [4] was above 10.8 mg/kg/day; in data set [5] (systemic / in life observation / body weight / body weight) it was 11 mg/kg/day; in data set [6] (systemic / pathology microscopic / esophagus / hyperkeratosis) it was 4 mg/kg/day; in data set [7] (setting [25]) it was above 5 mg/kg/day; in [8] (setting [26]) it was above 18 mg/kg/day; in data set [9] (setting [28]) it was above 8.2 mg/kg/day. In addition, the figures for the LOAEL in data set [10] (setting [29]) and in data set [11] (setting [30]) were above 11 mg/kg/day and above 45 mg/kg/day, respectively. Moreover, the NEL in data set [4] is 1.9 mg/kg/day; in [5] (setting [22]) it was below 3 mg/kg/day; in [6] (setting [23]), 2 mg/kg/day; in data set [7] (setting [24]), below 0.005 mg/kg/day; in data set [8] (setting [27]), below 2 mg/kg/day; in [9] (setting [28]) it was 1.4 mg/kg/day. Besides, the NEL in [10] (setting [29]) was found to be 2 mg/kg/day; in [11] (systemic / clinical chemistry / albumin / albumin + systemic / clinical chemistry / globulins / globulins + systemic / clinical chemistry / …), 6 mg/kg/day. The NOAEL in data set [4] was at least 10.8 mg/kg/day; in data set [5] (systemic / in life observation / body weight / body weight + systemic / pathology microscopic / stomach / squamous cell papilloma + systemic…) it was 6 mg/kg/day; in [6] (setting [23]) it was 2 mg/kg/day; in data set [7] (setting [25]), at least 5 mg/kg/day; in [8] (setting [26]), at least 18 mg/kg/day; in [9] (setting [28]), at least 8.2 mg/kg/day. In addition, the NOAEL is at least 11 mg/kg/day in data set [10] (setting [29]) and at least 45 mg/kg/day in [11] (setting [30]).
Take `O=[N+]([O-])[O-].[Ag+]` [Silver nitrate]: in [12] (setting [31]), the LOAEL was found to be 250 mg/kg/day, the NEL was 10 mg/kg/day and the NOAEL was 50 mg/kg/day. For the same compound, the LEL in data set [12] (systemic / in life observation / clinical signs / headflicking + systemic / in life observation / clinical signs / salivation + systemic / …) came out at 50 mg/kg/day.
For `CC(C)(C)[C@H](O)/C(=C\c1ccc(Cl)cc1)n1cncn1` [Uniconazole-P], the LOAEL was determined as 39.4 mg/kg/day in data set [13] (setting [32]); 225 mg/kg/day in data set [14] (systemic / pathology microscopic / liver / hypertrophy + systemic / pathology microscopic / liver / inflammation + systemic / pathology …); 25 mg/kg/day in data set [15] (setting [33]); 25 mg/kg/day in data set [15] (setting [34]); 20 mg/kg/day in data set [16] (setting [35]); 75 mg/kg/day in [17] (setting [36]). Further, the lowest-observed-adverse-effect level (LOAEL) in data set [17] (setting [37]) came out at 75 mg/kg/day; in [18] (systemic / organ weight / liver / absolute + systemic / organ weight / liver / relative to body weight), 20 mg/kg/day; in data set [19] (setting [39]), 100 mg/kg/day. In addition, the NOAEL is 7.78 mg/kg/day in data set [13] (setting [32]); 30 mg/kg/day in data set [14] (systemic / pathology microscopic / liver / hypertrophy + systemic / pathology microscopic / liver / necrosis + systemic / pathology …); 5 mg/kg/day in data set [15] (setting [33]); 5 mg/kg/day in [15] (setting [34]); 5 mg/kg/day in [16] (setting [31]); 7.5 mg/kg/day in [17] (setting [36]). In addition, the NOAEL came out at 7.5 mg/kg/day in [17] (setting [37]), 2 mg/kg/day in data set [18] (setting [38]) and 10 mg/kg/day in [19] (setting [39]). In addition, the LEL in data set [13] (systemic / pathology microscopic / liver / hypertrophy + systemic / pathology microscopic / liver / vacuolization) turned out to be 7.78 mg/kg/day; in data set [15] (setting [33]) it was 25 mg/kg/day; in data set [15] (setting [34]), 25 mg/kg/day; in data set [16] (setting [35]), 20 mg/kg/day; in data set [17] (setting [36]), 75 mg/kg/day; in data set [17] (group: parental, systemic / organ weight / liver / nos), 7.5 mg/kg/day. Moreover, the figures for the LEL in data set [18] (setting [38]) and in [19] (setting [40]) were 20 mg/kg/day and 3 mg/kg/day, respectively. Besides, the NEL in [13] (systemic / pathology microscopic / liver / hypertrophy + systemic / pathology microscopic / liver / vacuolization + systemic / in life …) is 1.48 mg/kg/day; in data set [14] (systemic / pathology microscopic / liver / adenoma + systemic / pathology microscopic / liver / adenoma/carcinoma combined + systemic / in …), 225 mg/kg/day; in data set [15] (setting [33]), 5 mg/kg/day; in [15] (setting [34]), 5 mg/kg/day; in data set [16] (setting [31]) it was 5 mg/kg/day; in data set [17] (setting [36]), 7.5 mg/kg/day. For the same compound, the results for the NEL in data set [17] (setting [37]), in [18] (systemic / clinical chemistry / alkaline phosphatase (alp/alk) / alkaline phosphatase (alp/alk) + systemic / organ weight / thymus / …) and in data set [19] (setting [40]) were 0.75 mg/kg/day, 2 mg/kg/day and below 3 mg/kg/day, respectively.

Source of the values: EPA's ToxRefDB 2.
